Measurements from the supplement of paper PMC11208160.

Assay: recombinant barcode read abundance after kanamycin selection (control-corrected) (log10(CPM+1)); higher = more efficient recombination; sequences stand for … in AGTGCAGAGAAAATCGGCCAGTTTTCTCTGCCTGCAGTCCGCATGCCGT…ATTTATGCAGCGGACTGCCTTTCTCCCAAAGTGATAAACCGGACAGTATCATGGACCGGTTTTCCCGGTAATCCGTATTTGCAAGGTTGGTTTCACT; site = the 11-nt target
Method in brief: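 Oligos holding a promoter, target, barcode and the J23119-driven first 104 bases of the bridge RNA were Gibson-cloned into a vector that supplied the other 73 bp plus a T7-inducible recombinase. This library was co-electroporated with a donor plasmid into E. coli. Two replicates went on chloramphenicol/ampicillin LB agar (control) and two on chloramphenicol/ampicillin/kanamycin with 0.1 mM IPTG. Recombination efficiency is read from averaged, control-corrected barcode counts per million at recombinant junctions, reported as log10(CPM+1).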

Row | Sequence | recombinant barcode read abundance (log10)
1 | TCGCGACAATGGGTTCTAACCTGTTGCCGTT [TCGCGACCTCG_LTGcore_AA_RTGcore_AA] (site TCGCGACCTCG) (LTG core: AA, RTG core: AA) | 0.176
2 | TCGCGACACTGGGTTCTAACCTGTTGCCGAG [TCGCGACCTCG_LTGcore_AC_RTGcore_CT] (site TCGCGACCTCG) (LTG core: AC, RTG core: CT) | 0.0715
3 | TCGCGACCGTGGGTTCTAACCTGTTGCCGAG [TCGCGACCTCG_LTGcore_CG_RTGcore_CT] (site TCGCGACCTCG) (LTG core: CG, RTG core: CT) | 0.392
4 | TCGCGACCTTGGGTTCTAACCTGTTGCCGAT [TCGCGACCTCG_LTGcore_CT_RTGcore_AT] (site TCGCGACCTCG) (LTG core: CT, RTG core: AT) | 0.514
5 | TCGCGACCTTGGGTTCTAACCTGTTGCCGCA [TCGCGACCTCG_LTGcore_CT_RTGcore_TG] (site TCGCGACCTCG) (LTG core: CT, RTG core: TG) | 0.072
6 | TCGCGACCTTGGGTTCTAACCTGTTGCCGCT [TCGCGACCTCG_LTGcore_CT_RTGcore_AG] (site TCGCGACCTCG) (LTG core: CT, RTG core: AG) | 0.0581
7 | TCGCGACCTTGGGTTCTAACCTGTTGCCGGG [TCGCGACCTCG_LTGcore_CT_RTGcore_CC] (site TCGCGACCTCG) (LTG core: CT, RTG core: CC) | 0.283
8 | TCGCGACCTTGGGTTCTAACCTGTTGCCGGT [TCGCGACCTCG_LTGcore_CT_RTGcore_AC] (site TCGCGACCTCG) (LTG core: CT, RTG core: AC) | 0.129
9 | TCGCGACCTTGGGTTCTAACCTGTTGCCGTC [TCGCGACCTCG_LTGcore_CT_RTGcore_GA] (site TCGCGACCTCG) (LTG core: CT, RTG core: GA) | 0.204
10 | TCGCGACGATGGGTTCTAACCTGTTGCCGAG [TCGCGACCTCG_LTGcore_GA_RTGcore_CT] (site TCGCGACCTCG) (LTG core: GA, RTG core: CT) | 0.241
11 | TCGCGACGATGGGTTCTAACCTGTTGCCGTC [TCGCGACCTCG_LTGcore_GA_RTGcore_GA] (site TCGCGACCTCG) (LTG core: GA, RTG core: GA) | 0.123
12 | TCGCGACGCTGGGTTCTAACCTGTTGCCGAG [TCGCGACCTCG_LTGcore_GC_RTGcore_CT] (site TCGCGACCTCG) (LTG core: GC, RTG core: CT) | 0.235
13 | TCGCGACGTTGGGTTCTAACCTGTTGCCGAC [TCGCGACCTCG_LTGcore_GT_RTGcore_GT] (site TCGCGACCTCG) (LTG core: GT, RTG core: GT) | 0.0448
14 | TCGCGACTATGGGTTCTAACCTGTTGCCGAG [TCGCGACCTCG_LTGcore_TA_RTGcore_CT] (site TCGCGACCTCG) (LTG core: TA, RTG core: CT) | 0.0865
15 | TCGCGACTGTGGGTTCTAACCTGTTGCCGCA [TCGCGACCTCG_LTGcore_TG_RTGcore_TG] (site TCGCGACCTCG) (LTG core: TG, RTG core: TG) | 0.419
16 | TCTACCCAATGGGTTCTAACCTGTTGCTGTT [TCTACCCCTCA_LTGcore_AA_RTGcore_AA] (site TCTACCCCTCA) (LTG core: AA, RTG core: AA) | 0.186
17 | TCTACCCATTGGGTTCTAACCTGTTGCTGAG [TCTACCCCTCA_LTGcore_AT_RTGcore_CT] (site TCTACCCCTCA) (LTG core: AT, RTG core: CT) | 0.331
18 | TCTACCCCATGGGTTCTAACCTGTTGCTGTG [TCTACCCCTCA_LTGcore_CA_RTGcore_CA] (site TCTACCCCTCA) (LTG core: CA, RTG core: CA) | 0.0357
19 | TCTACCCCGTGGGTTCTAACCTGTTGCTGAG [TCTACCCCTCA_LTGcore_CG_RTGcore_CT] (site TCTACCCCTCA) (LTG core: CG, RTG core: CT) | 0.0746
20 | TCTACCCCGTGGGTTCTAACCTGTTGCTGCG [TCTACCCCTCA_LTGcore_CG_RTGcore_CG] (site TCTACCCCTCA) (LTG core: CG, RTG core: CG) | 0.0225
21 | TCTACCCCTTGGGTTCTAACCTGTTGCTGAC [TCTACCCCTCA_LTGcore_CT_RTGcore_GT] (site TCTACCCCTCA) (LTG core: CT, RTG core: GT) | 0.169
22 | TCTACCCCTTGGGTTCTAACCTGTTGCTGCG [TCTACCCCTCA_LTGcore_CT_RTGcore_CG] (site TCTACCCCTCA) (LTG core: CT, RTG core: CG) | 0.0367
23 | TCTACCCCTTGGGTTCTAACCTGTTGCTGCT [TCTACCCCTCA_LTGcore_CT_RTGcore_AG] (site TCTACCCCTCA) (LTG core: CT, RTG core: AG) | 0.0324

Row | Sequence | recombinant barcode read abundance (log10)
24 | TCTACCCCTTGGGTTCTAACCTGTTGCTGGT [TCTACCCCTCA_LTGcore_CT_RTGcore_AC] (site TCTACCCCTCA) (LTG core: CT, RTG core: AC) | 0.0498
25 | TCTACCCCTTGGGTTCTAACCTGTTGCTGTC [TCTACCCCTCA_LTGcore_CT_RTGcore_GA] (site TCTACCCCTCA) (LTG core: CT, RTG core: GA) | 0.0329
26 | TCTACCCCTTGGGTTCTAACCTGTTGCTGTT [TCTACCCCTCA_LTGcore_CT_RTGcore_AA] (site TCTACCCCTCA) (LTG core: CT, RTG core: AA) | 0.07
27 | TCTACCCGATGGGTTCTAACCTGTTGCTGTC [TCTACCCCTCA_LTGcore_GA_RTGcore_GA] (site TCTACCCCTCA) (LTG core: GA, RTG core: GA) | 0.0498
28 | TCTACCCGGTGGGTTCTAACCTGTTGCTGAG [TCTACCCCTCA_LTGcore_GG_RTGcore_CT] (site TCTACCCCTCA) (LTG core: GG, RTG core: CT) | 0.0172
29 | TCTACCCTATGGGTTCTAACCTGTTGCTGAG [TCTACCCCTCA_LTGcore_TA_RTGcore_CT] (site TCTACCCCTCA) (LTG core: TA, RTG core: CT) | 0.0453
30 | TGATACCAATGGGTTCTAACCTGTTGCGTAG [TGATACCCTAC_LTGcore_AA_RTGcore_CT] (site TGATACCCTAC) (LTG core: AA, RTG core: CT) | 0.143
31 | TGATACCACTGGGTTCTAACCTGTTGCGTAG [TGATACCCTAC_LTGcore_AC_RTGcore_CT] (site TGATACCCTAC) (LTG core: AC, RTG core: CT) | 0.135
32 | TGATACCCTTGGGTTCTAACCTGTTGCGTCC [TGATACCCTAC_LTGcore_CT_RTGcore_GG] (site TGATACCCTAC) (LTG core: CT, RTG core: GG) | 0.629
33 | TGATACCCTTGGGTTCTAACCTGTTGCGTCG [TGATACCCTAC_LTGcore_CT_RTGcore_CG] (site TGATACCCTAC) (LTG core: CT, RTG core: CG) | 0.0319
34 | TGATACCCTTGGGTTCTAACCTGTTGCGTCT [TGATACCCTAC_LTGcore_CT_RTGcore_AG] (site TGATACCCTAC) (LTG core: CT, RTG core: AG) | 0.133
35 | TGATACCCTTGGGTTCTAACCTGTTGCGTGA [TGATACCCTAC_LTGcore_CT_RTGcore_TC] (site TGATACCCTAC) (LTG core: CT, RTG core: TC) | 0.864
36 | TGATACCCTTGGGTTCTAACCTGTTGCGTGG [TGATACCCTAC_LTGcore_CT_RTGcore_CC] (site TGATACCCTAC) (LTG core: CT, RTG core: CC) | 0.651
37 | TGATACCGATGGGTTCTAACCTGTTGCGTAG [TGATACCCTAC_LTGcore_GA_RTGcore_CT] (site TGATACCCTAC) (LTG core: GA, RTG core: CT) | 0.221
38 | TGATACCGTTGGGTTCTAACCTGTTGCGTAC [TGATACCCTAC_LTGcore_GT_RTGcore_GT] (site TGATACCCTAC) (LTG core: GT, RTG core: GT) | 0.0235
39 | TGATACCGTTGGGTTCTAACCTGTTGCGTAG [TGATACCCTAC_LTGcore_GT_RTGcore_CT] (site TGATACCCTAC) (LTG core: GT, RTG core: CT) | 0.236
40 | TGTATTCACTGGGTTCTAACCTGTTGCCTAG [TGTATTCCTAG_LTGcore_AC_RTGcore_CT] (site TGTATTCCTAG) (LTG core: AC, RTG core: CT) | 0.0447
41 | TGTATTCACTGGGTTCTAACCTGTTGCCTGT [TGTATTCCTAG_LTGcore_AC_RTGcore_AC] (site TGTATTCCTAG) (LTG core: AC, RTG core: AC) | 0.251
42 | TGTATTCCTTGGGTTCTAACCTGTTGCCTAA [TGTATTCCTAG_LTGcore_CT_RTGcore_TT] (site TGTATTCCTAG) (LTG core: CT, RTG core: TT) | 0.0404
43 | TGTATTCCTTGGGTTCTAACCTGTTGCCTGC [TGTATTCCTAG_LTGcore_CT_RTGcore_GC] (site TGTATTCCTAG) (LTG core: CT, RTG core: GC) | 0.133
44 | TGTATTCCTTGGGTTCTAACCTGTTGCCTGG [TGTATTCCTAG_LTGcore_CT_RTGcore_CC] (site TGTATTCCTAG) (LTG core: CT, RTG core: CC) | 0.0432
45 | TGTATTCCTTGGGTTCTAACCTGTTGCCTTT [TGTATTCCTAG_LTGcore_CT_RTGcore_AA] (site TGTATTCCTAG) (LTG core: CT, RTG core: AA) | 0.0134
